Experimental data reported in patent publication US20070010488A1, “Compounds for modulating cell proliferation” (priority 2005, published 2007).
Values joined by “and” are separate entries in the source; they are usually repeats but may differ in a detail not shown here. Equal values may be shown once. Read-outs that look alike come from different tables or passages of the source.

What was measured:
MOLM-13 (AML) = test: Alamar Blue cell viability assay, MOLM-13; type: cell-based; details: Homo sapiens, 72 hours
Description: (§1) Each test compound was weighed between the ranges of 0.5-2.0 mg, and then dissolved in a specified volume of DMSO to produce a solution of 10 mM. Appropriate dilutions in cell culture medium were made to produce a stock solution of 400 μM. All subsequent dilutions were also done in cell culture medium. This stock solution was then used for further dilutions to produce the initial concentration to be added to the 50 μL and 450 μL of cells in the 96-well and the 48-well microtiter plates, respectively:
(§2) The initial concentration for cells that were cultured in 50 μL 96-well plates was 40 μM. […]
(§3) 50 μL of cell culture medium containing the test compound was added to each well twenty four hours after seeding. […] Proliferation of cells was assessed using the fluorimetric Alamar Blue (CellTiter Blue) test and cell counting.
(§4) For the Alamar Blue assay, untreated cells were used as growth controls. Data were assessed in duplicates. […] The Alamar Blue cell viability assay was used to determine the IC50 concentrations for the inhibition of cell proliferation or induction of cell death by the ets articles as well as the reference Compound A. Primary data from all assays were plotted for each test compound, cell system and test concentration, with the y-axis representing the readout for cell proliferation/viability and the x-axis representing the compound concentration (μM). […]

[1] = Mouse pharmacokinetics, intravenous and oral, plasma LC/MSMS; type: in vivo; details: Mice CD1; for bioavailability: read-out: Bioavailability factor
Description: Compound A (Stored at ca. +5° C.)
Formulation preparation for oral routes: […]
Animal Phase: • Species: Mice CD1 (supplied from Harlan, France) • Routes tested: Intravenous (Mice Nos.39 to 52 incl.), oral low dose (Mice Nos.53 to 63 incl.) and oral high dose (Mice Nos.65 to 76 incl.) • Animals were not fasted.
Times of blood sampling performed from the abdominal aorta (2 animals per time point): • Intravenous route (IV): 5 min, 15 min, 30 min, 1 h, 2 h, 6 h and 24 h • Oral routes (PO): 15 min, 30 min, 1 h, 3 h, 6 h and 24 h
Plasma was harvested by centrifugation of blood at 3500 g for 10 minutes at ca. +5° C.
Plasma was stored at ca. −20° C. until analysis.
Analytical method: LC/MSMS after extraction
Calibration undertaken in plasma (5 levels in mice, twice injected, ranging from 10 to 1000 ng.mL^−1)
HPLC Conditions: • Colonne: Zorbax C18 50×2.1 mm, 3.5 μm • Filter: A102X 5 μm • Injected volume: 20 μL • Mobile phase flow: 0.1 mL.min^−1 • Autosampler temperature: ca. +5° C. • Oven temperature: ca. +30° C. • Run time: 10 min • Mobile phase: deionized water with 0.1% formic acid/methanol with 0.1% formic acid; 30:70 v/v (isocratic) • Retention time: ca. 2.1 min
Extraction Method for Plasma Sample: • 50 μL of plasma combined with 100 μL of methanol • Vortexed a few seconds • Centrifuged 3 min at 13 000 rpm at ca. +5° C. • Diluted 50 μL of the supernatant with 50 μL of deionized water in a HPLC vial for injection • Vortexed a few seconds • Injected into the HPLC/MSMS system Extraction Method for Plasma Calibration Sample: • 50 μL of plasma sample combined with 100 μL of spiking solution • Vortexed a few seconds • Centrifuged 3 min at 13 000 rpm at ca. +5° C. • Diluted 50 μL of the supernatant with 50μL of deionized water in a HPLC vial for injection • Vortexed a few seconds • Injected into the HPLC/MSMS system Results: Animal and Analytical Phase Results: […]

SKM-1 (AML) = test: Alamar Blue cell viability assay, SKM-1; type: cell-based; details: Homo sapiens, 72 hours
Description: as §1, §2, §3, §4

RS4-11 (B-ALL) = test: Alamar Blue cell viability assay, RS4-11; type: cell-based; details: Homo sapiens, 72 hours
Description: as §1, §2, §3, §4

K562 (CML) = test: Trypan Blue Dye Exclusion and Cell Counting Assay, K562; type: cell-based; details: Homo sapiens, 72 hours
Description: as §1
(§5) The initial concentration for cells that were cultured in 50 μL 96-well plates was 40 μM. Once 50 μL of this test solution was added to the cells, this then produced a final dilution of 1:2, giving the desired concentration of 20 μM. Further 1:2 dilutions were made until the desired concentration of […] was reached.
(§6) Compound 1 was used as positive control at concentrations of 1 μM and 3 μM. Cells were incubated with the test compounds for 72 hours. C1 and OCI-AML2 and RPMI8226 cell culture media were assayed by addition of 20 μL of Alamar Blue reagent and incubated for 4 hours before reading. Cell counting was utilised for K562 and DAUDI. [drawing 13] […]
as §3

[2] = system: DAUDI (non-Hodgkin lymphoma); test: Trypan Blue Dye Exclusion and Cell Counting Assay, DAUDI; type: cell-based; details: Homo sapiens, 72 hours
Description: as §1, §5, §6, §3

PEER (B-ALL) = test: Alamar Blue cell viability assay, PEER; type: cell-based; details: Homo sapiens, 72 hours
Description: as §1, §2, §3, §4

MOLT-4 (T-ALL) = test: Alamar Blue cell viability assay, MOLT-4; type: cell-based; details: Homo sapiens, 72 hours
Description: as §1, §2, §3, §4

SUP-B15 (B-ALL) = test: Alamar Blue cell viability assay, SUP-B15; type: cell-based; details: Homo sapiens, 72 hours
Description: as §1, §2, §3, §4

KASUMI-1 (AML) = test: Alamar Blue cell viability assay, KASUMI-1; type: cell-based; details: Homo sapiens, 72 hours
Description: as §1, §2, §3, §4

MV4-11 (AML) = test: Alamar Blue cell viability assay, MV4-11; type: cell-based; details: Homo sapiens, 72 hours
Description: as §1, §2, §3, §4

CCRF-CEM (T-ALL) = test: Alamar Blue cell viability assay, CCRF-CEM; type: cell-based; details: Homo sapiens, 72 hours
Description: as §1, §2, §3, §4

OCI-AML2 (AML) = test: Alamar Blue cell viability assay, OCI-AML2; type: cell-based; details: Homo sapiens, 72 hours
Description: as §1, §5
(§7) Compound 1 was used as positive control at concentrations of 1 μM and 3 μM. […] C1 and OCI-AML2 and RPMI8226 cell culture media were assayed by addition of 20 μL of Alamar Blue reagent and incubated for 4 hours before reading. […]
as §3
(§8) For the Alamar Blue assay, untreated cells were used as growth controls. Data were assessed in duplicates. […]

C1 (T-ALL) = test: Alamar Blue cell viability assay, C1; type: cell-based; details: Homo sapiens, 72 hours
Description: as §1, §5, §7, §3, §8

RPMI8226 (myeloma) = test: Alamar Blue cell viability assay, RPMI8226; type: cell-based; details: Homo sapiens, RPMI-8226, 72 hours
Description: as §1, §5, §7, §3, §8

[3] = mouse, plasma, intravenous 3.83 mg/kg
[4] = mouse, plasma, oral high dose 50.2 mg/kg
[5] = mouse, plasma, oral low dose 10.0 mg/kg

SMILES: CCN1C/C(=C\c2cc(OC)c(OC)c(OC)c2)C(=O)/C(=C/c2cc(OC)c(OC)c(OC)c2)C1 [Compound A]
- IC50 (MOLM-13 (AML)): 1.9 µM
- concentration at 0.083 h ([1]; CD1, mouse, plasma, iv, 3.83 mg/kg, intravenous 3.83 mg/kg, 0.083 h, individual mice, read-out: Plasma levels): 0.2 µg/mL
- concentration at 0.25 h ([1]; CD1, mouse, plasma, iv, 3.83 mg/kg, intravenous 3.83 mg/kg, 0.25 h, individual mice, read-out: Plasma levels): 0.0644 µg/mL
- concentration at 0.5 h ([1]; CD1, mouse, plasma, iv, 3.83 mg/kg, intravenous 3.83 mg/kg, 0.5 h, individual mice, read-out: Plasma levels): 0.0575 µg/mL
- concentration at 2 h ([1]; CD1, mouse, plasma, iv, 3.83 mg/kg, intravenous 3.83 mg/kg, 2 h, individual mice, read-out: Plasma levels): 0.0179 µg/mL
- concentration at 0.5 h ([1]; CD1, mouse, plasma, po, 10 mg/kg, oral low dose 10.0 mg/kg, 0.5 h, individual mice, read-out: Plasma levels): 0.0717 µg/mL
- concentration at 1 h ([1]; CD1, mouse, plasma, po, 10 mg/kg, oral low dose 10.0 mg/kg, 1 h, individual mice, read-out: Plasma levels): 0.0835 µg/mL
- concentration at 3 h ([1]; CD1, mouse, plasma, po, 10 mg/kg, oral low dose 10.0 mg/kg, 3 h, individual mice, read-out: Plasma levels): 0.0417 µg/mL
- concentration at 24 h ([1]; CD1, mouse, plasma, po, 10 mg/kg, oral low dose 10.0 mg/kg, 24 h, individual mice, LOQ 10 ng · mL^−1, ND: Not Detectable, read-out: Plasma levels): 0.0058 µg/mL
- concentration at 0.25 h ([1]; CD1, mouse, plasma, po, 50.2 mg/kg, oral high dose 50.2 mg/kg, 0.25 h, individual mice, read-out: Plasma levels): 0.819 µg/mL
- concentration at 0.5 h ([1]; CD1, mouse, plasma, po, 50.2 mg/kg, oral high dose 50.2 mg/kg, 0.5 h, individual mice, read-out: Plasma levels): 0.434 µg/mL
- concentration at 1 h ([1]; CD1, mouse, plasma, po, 50.2 mg/kg, oral high dose 50.2 mg/kg, 1 h, individual mice, read-out: Plasma levels): 0.175 µg/mL
- concentration at 3 h ([1]; CD1, mouse, plasma, po, 50.2 mg/kg, oral high dose 50.2 mg/kg, 3 h, individual mice, read-out: Plasma levels): 0.137 µg/mL
- % AUCextra ([1]; intravenous 3.83 mg/kg): 3.2%
- Plasma levels ([1]; intravenous 3.83 mg/kg, 0.083 h, individual mice, 3.83 mg/kg): 0.33391 µg/mL
- Plasma levels ([1]; intravenous 3.83 mg/kg, 0.25 h, individual mice, 3.83 mg/kg): 0.08528 µg/mL
- Plasma levels ([1]; intravenous 3.83 mg/kg, 0.5 h, individual mice, 3.83 mg/kg): 0.06956 µg/mL
- Plasma levels ([1]; intravenous 3.83 mg/kg, 1 h, individual mice, 3.83 mg/kg): 0.08073 µg/mL and 0.03925 µg/mL
- Plasma levels ([1]; intravenous 3.83 mg/kg, 2 h, individual mice, 3.83 mg/kg): 0.0129 µg/mL
- Plasma levels ([1]; intravenous 3.83 mg/kg, 6 h, individual mice, LOQ 10 ng · mL^−1, 3.83 mg/kg): 0.01494 µg/mL and 0.00729 µg/mL
- Plasma levels ([1]; intravenous 3.83 mg/kg, 24 h, individual mice, LOQ 10 ng · mL^−1, 3.83 mg/kg): 0.00168 µg/mL and 0.00036 µg/mL
- % AUCextra ([1]; oral high dose 50.2 mg/kg): 0.57%
- Plasma levels ([1]; oral high dose 50.2 mg/kg, 0.25 h, individual mice, 50.2 mg/kg): 0.44458 µg/mL
- Plasma levels ([1]; oral high dose 50.2 mg/kg, 0.5 h, individual mice, 50.2 mg/kg): 0.39399 µg/mL
- Plasma levels ([1]; oral high dose 50.2 mg/kg, 1 h, individual mice, 50.2 mg/kg): 0.21368 µg/mL
- Plasma levels ([1]; oral high dose 50.2 mg/kg, 3 h, individual mice, 50.2 mg/kg): 0.16065 µg/mL
- Plasma levels ([1]; oral high dose 50.2 mg/kg, 6 h, individual mice, 50.2 mg/kg): 0.02307 µg/mL and 0.13734 µg/mL
- Plasma levels ([1]; oral high dose 50.2 mg/kg, 24 h, individual mice, LOQ 10 ng · mL^−1, 50.2 mg/kg): 0.00236 µg/mL and 0.00104 µg/mL
- % AUCextra ([1]; oral low dose 10.0 mg/kg): 4.1%
- Plasma levels ([1]; oral low dose 10.0 mg/kg, 0.25 h, individual mice, 10 mg/kg): 0.06754 µg/mL and 0.17837 µg/mL
- Plasma levels ([1]; oral low dose 10.0 mg/kg, 0.5 h, individual mice, 10 mg/kg): 0.08339 µg/mL
- Plasma levels ([1]; oral low dose 10.0 mg/kg, 1 h, individual mice, 10 mg/kg): 0.07035 µg/mL
- Plasma levels ([1]; oral low dose 10.0 mg/kg, 3 h, individual mice, 10 mg/kg): 0.04047 µg/mL
- Plasma levels ([1]; oral low dose 10.0 mg/kg, 6 h, individual mice, LOQ 10 ng · mL^−1, 10 mg/kg): 0.00267 µg/mL and 0.0063 µg/mL
- AUC [1, 3]: 0.254 µg·h/mL
- AUC(0-t) [1, 3]: 0.246 µg·h/mL
- Vd [1, 3]: 119 L/kg
- clearance ([1]; mouse, plasma, intravenous 3.83 mg/kg, read-out: Total Clearance (converted)): 15.1 L/h/kg
- half-life ([1]; mouse, plasma, intravenous 3.83 mg/kg, read-out: T½ (converted)): 330 min
- AUC [1, 4]: 1.4 µg·h/mL
- AUC(0-t) [1, 4]: 1.39 µg·h/mL
- Cmax [1, 4]: 0.632 µg/mL
- Tmax [1, 4]: 15 min
- bioavailability ([1]; mouse, plasma, oral high dose 50.2 mg/kg vs intravenous): 43.4%
- AUC [1, 5]: 0.321 µg·h/mL
- AUC(0-t) [1, 5]: 0.308 µg·h/mL
- Cmax [1, 5]: 0.123 µg/mL
- Tmax [1, 5]: 15 min
- bioavailability ([1]; mouse, plasma, oral low dose 10.0 mg/kg vs intravenous): 48%
- IC50 (SKM-1 (AML)): 0.56 µM
- IC50 (RS4-11 (B-ALL)): 0.45 µM
- IC50 (K562 (CML)): 2.5 µM
- IC50 [2]: 0.55 µM
- IC50 (PEER (B-ALL)): 0.72 µM
- IC50 (MOLT-4 (T-ALL)): 0.97 µM
- IC50 (SUP-B15 (B-ALL)): 1.03 µM
- IC50 (KASUMI-1 (AML)): 0.56 µM
- IC50 (MV4-11 (AML)): 0.22 µM
- IC50 (CCRF-CEM (T-ALL)): 1.18 µM
- IC50 (OCI-AML2 (AML)): 1.03 µM
- IC50 (C1 (T-ALL)): 0.18 µM
- IC50 (RPMI8226 (myeloma)): 1.5 µM
